Results from patent publication US20260008793A1, “IONIZABLE CATIONIC LIPIDS INCORPORATING SILICON” (ALDEXCHEM KFT., priority 2022, published 2026).

Columns and labels:
HeLa cells = experiment: Transfection efficiency with Luciferase-mRNA, Nano-Glo assay (Method A); format: cell-based; conditions: 100 ng Luciferase (SecNLuc) mRNA, 24 h, luminescence
Method in brief: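 Luminescence of secreted NanoLuc in culture medium, read ~3 min after Nano-Glo reagent, reports transfection. HeLa cells grown to ~80% confluence got 100/50/10 ng mRNA per well as LNPs for 24 h, with a parallel resazurin toxicity readout.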

physchem = format: physicochemical
Experimental: The synthesized lipids were tested in term of in vitro transfection efficacy and toxicity on HeLa cells. In order to perform the mentioned biological tests, appropriate LNPs had to be formulated from the synthesized lipids. The formulation technique was different in Method A and B. The particle size, PDI and zeta potential of resulting LNPs were determined by means of Dynamic Light Scattering technique (DLS). Prior to biological testing the encapsulation efficiency (EE) of the loaded LNPs was determined by using RiboGreen RNA assay. In case of Method A Luciferase-mRNA while in case of Method B GFP-mRNA was transfected into the cells. In parallel with the transfection experiments, toxicity of the investigated LNPs was determined, in case of Method A resazurin assay while in case of Method B MTT assay was used. In the case of some lipids, the apparent pKa in LNPs was determined by using TNS titration based on the method described: Angew Chem Int Ed Engl. 2012, 51 (34), 8529-8533, doi: 10.1002/anie.201203263).

[1] = LNP size, PDI and zeta potential by Dynamic Light Scattering (Method A); format: physicochemical; conditions: LNP formulated by Method A; for Zeta potential (mV): 1xPBS pH 7.4; for PDI / Size (nm): DLS; for Size (nm): Luciferase-mRNA loaded
Method in brief: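 Dynamic light scattering gave particle size, PDI and zeta potential of the LNPs. These were made by microfluidic mixing, 3:1 aqueous to ethanol, of mRNA in 10 mM citrate pH 4.0 with a lipid master mix carrying the ionizable lipid, then dialysed through 100 kDa MWCO tubing.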

SMILES | Transfection* (Method A = 100 ng mRNA) (HeLa cells) | pKa (physchem) | Zeta potential (mV) [1] | PDI [1] | Size (nm) [1]
CCCCCCCCCCCOC(=O)CCCCCN(CCO)CCCCCCCCCOC(CCCCCCC)O[Si](C)(C)CCCCCC (stereo not drawn) [Example 209, undecyl 9-heptyl-20-(2-hydroxyethyl)-7,7-dimethyl-8,10-dioxa-20-aza-7-silahexacosan-26-oate] | 2049133 | 6.61 | −12.11 mV | 0.018 | 161.6 nm
CCCCCCCCC(CCCCCC)CO[Si](C)(C)OC(CCCCCCC)OCCCCCCN(CCCCO)CCC[C@@H](C)C1CCC2C3CCC4C[C@H](OC)CC[C@]4(C)C3CC[C@@]21C (stereo partly drawn) [Example 223, 13-heptyl-18-hexyl-5-((4R)-4-((3R,10S,13R)-3-methoxy-10,13-dimethylhexadecahydro-1H-cyclopenta[a]phenanthren-17-yl)pentyl)-15,15-dimethyl-12,14,16-trioxa-5-aza-15-silahexacosan-1-ol] | 2167625 |  | −13.68 mV | 0.15 | 206.5 nm
CCCCCCCCCCSC(CCCC)C(=O)OCCCCCCN(CCCCO)CCCCCCOC(CCCCCCC)O[Si](C)(C)O[Si](C)(C)OCCCCCCCC (stereo not drawn) [Example 173, 15-heptyl-7-(4-hydroxybutyl)-17,17,19,19-tetramethyl-14,16,18,20-tetraoxa-7-aza-17,19-disilaoctacosyl 2-(decylthio)hexanoate] | 182533 |  | −11.32 mV | 0.033 | 180.5 nm
CCCCCCCCCOC(CCCCCCC)O[Si](C)(C)OCCCCCCN(CCCCO)CCCCCCOC(=O)C(CCCCCC)CCCCCCCC (stereo not drawn) [Example 141, 17-heptyl-7-(4-hydroxybutyl)-15,15-dimethyl-14,16,18-trioxa-7-aza-15-silaheptacosyl 2-hexyldecanoate] | 4651434 |  | −10.6 mV | 0.11 | 129.5 nm
CCCCCCCC[Si](C)(C)OC(CCCCCCC)OCCCCCCN(CCCCO)CCCCCCOC(CCCCCCC)O[Si](C)(C)CCCCCCCC (stereo not drawn) [Example 102, 5-(6-((1-((dimethyl(octyl)silyl)oxy)octyl)oxy)hexyl)-13-heptyl-15,15-dimethyl-12,14-dioxa-5-aza-15-silatricosan-1-ol] | 129513 |  | −3.4 mV | 0.06 | 212.9 nm
CCCCCCCCOC(CCCCCN(CCCCO)CCC[C@@H](C)C1CCC2C3CCC4C[C@H](OC)CC[C@]4(C)C3CC[C@@]21C)O[Si](C)(C)O[Si](C)(C)CCCCCCCC (stereo partly drawn) [Example 218, 4-(((4R)-4-((3R,10S,13R)-3-methoxy-10,13-dimethylhexadecahydro-1H-cyclopenta[a]phenanthren-17-yl)pentyl)(6-(octyloxy)-6-((1,1,3,3-tetramethyl-3-octyldisiloxaneyl)oxy)hexyl)amino)butan-1-ol] | 94651 |  | −12.88 mV | 0.028 | 165.6 nm
CCCCCCCCOC(CCCCCN(CCCCO)CCC[C@@H](C)C1CCC2C3CCC4C[C@H](OC)CC[C@]4(C)C3CC[C@@]21C)O[Si](C)(C)OCC(CCCCCC)CCCCCCCC (stereo partly drawn) [Example 222, 16-hexyl-5-((4R)-4-((3R,10S,13R)-3-methoxy-10,13-dimethylhexadecahydro-1H-cyclopenta[a]phenanthren-17-yl)pentyl)-13,13-dimethyl-11-(octyloxy)-12,14-dioxa-5-aza-13-silatetracosan-1-ol] | 1156093 |  | −16.36 mV | 0.121 | 164.5 nm
CCCCCCCCOC(CCCCCN(CCCCCC(OCCCCCCCC)O[Si](C)(C)CCCCCCCC)CCC1CCCN1C)O[Si](C)(C)CCCCCCCC (stereo not drawn) [Example 116, 6-((dimethyl(octyl)silyl)oxy)-N-(6-((dimethyl(octyl)silyl)oxy)-6-(octyloxy)hexyl)-N-(2-(1-methylpyrrolidin-2-yl)ethyl)-6-(octyloxy)hexan-1-amine] | 118987 |  | −14.17 mV | 0.092 | 189.8 nm
CC/C=C\C/C=C\C/C=C\C/C=C\C/C=C\CCCCN(CCCCO)CCCCCC(OCCCCCCCC)O[Si](C)(C)CCCCCCCC (stereo not drawn) [Example 194, 4-((6-((dimethyl(octyl)silyl)oxy)-6-(octyloxy)hexyl)((5Z,8Z,11Z,14Z,17Z)-icosa-5,8,11,14,17-pentaen-1-yl)amino)butan-1-ol] | 152542 |  | −16.45 mV | 0.085 | 153.5 nm
CCCCCCCCCCOC(CCCCC)O[Si](C)(C)OCCCCCCN(CCCCO)CCCCCCOC(=O)C(CCCCCC)CCCCCCCC (stereo not drawn) [Example 145, 7-(4-hydroxybutyl)-15,15-dimethyl-17-pentyl-14,16,18-trioxa-7-aza-15-silaoctacosyl 2-hexyldecanoate] | 5735227 |  | −7.7 mV | 0.16 | 143.3 nm
CCCCCCCCCCSC(CCCC)C(=O)OCCCCCCN(CCCCO)CCCCCC(OCCCCCCCC)O[Si](C)(C)OCC(CCCCCC)CCCCCCCC (stereo not drawn) [Example 174, 18-hexyl-7-(4-hydroxybutyl)-15,15-dimethyl-13-(octyloxy)-14,16-dioxa-7-aza-15-silahexacosyl 2-(decylthio)hexanoate] | 2292920 |  | −15.5 mV | 0.159 | 222.6 nm
CC/C=C\C/C=C\C/C=C\C/C=C\C/C=C\CCCCN(CCCCO)CCCCCCOC(CCCCCCC)O[Si](C)(C)OCC(CCCCCC)CCCCCCCC (stereo not drawn) [Example 203, 13-heptyl-18-hexyl-5-((5Z,8Z,11Z,14Z,17Z)-icosa-5,8,11,14,17-pentaen-1-yl)-15,15-dimethyl-12,14,16-trioxa-5-aza-15-silahexacosan-1-ol] | 161894 |  | −14.95 mV | 0.13 | 139.2 nm
CCCCCCCCCCSC(CCCC)C(=O)OCCCCCCN(CCCCO)CCCCCC(OCCCCCCCC)O[Si](C)(C)O[Si](C)(C)CCCCCCCC (stereo not drawn) [Example 170, 6-((4-hydroxybutyl)(6-(octyloxy)-6-((1,1,3,3-tetramethyl-3-octyldisiloxaneyl)oxy)hexyl)amino)hexyl 2-(decylthio)hexanoate] | 711747 |  | −14.68 mV | 0.210 | 207.5 nm
CC/C=C\C/C=C\C/C=C\C/C=C\C/C=C\CCCCN(CCCCO)CCCCCCO[Si](C)(C)OC(CCCCCCC)OCCCCCCCC (stereo not drawn) [Example 205, 15-heptyl-5-((5Z,8Z,11Z,14Z,17Z)-icosa-5,8,11,14,17-pentaen-1-yl)-13,13-dimethyl-12,14,16-trioxa-5-aza-13-silatetracosan-1-ol] | 95124 |  | −13.13 mV | 0.077 | 197.2 nm
CCCCCCCCOC(CCCCCN(CCCCO)CCC[C@@H](C)C1CCC2C3CCC4C[C@H](OC)CC[C@]4(C)C3CC[C@@]21C)O[Si](C)(C)O[Si](C)(C)OCCCCCCCC (stereo partly drawn) [Example 220, 4-(((4R)-4-((3R,10S,13R)-3-methoxy-10,13-dimethylhexadecahydro-1H-cyclopenta[a]phenanthren-17-yl)pentyl)(6-(octyloxy)-6-((1,1,3,3-tetramethyl-3-(octyloxy)disiloxaneyl)oxy)hexyl)amino)butan-1-ol] | 367060 |  | −14.55 mV | 0.002 | 138.4 nm
CCCCCCCCOC(CCCCCCC)O[Si](C)(C)CCCCCCN(CCCCO)CCCCCC[Si](C)(C)OC(CCCCCCC)OCCCCCCCC (stereo not drawn) [Example 113, 5-(6-(dimethyl((1-(octyloxy)octyl)oxy)silyl)hexyl)-14-heptyl-12,12-dimethyl-13,15-dioxa-5-aza-12-silatricosan-1-ol] | 200295 |  | −5.00 mV | 0.11 | 174.6 nm
CCCCCCCCOC(CCCCCN(CCCCO)CCC[C@@H](C)C1CCC2C3CCC4C[C@H](OC)CC[C@]4(C)C3CC[C@@]21C)O[Si](C)(C)OCCCCCCCC (stereo partly drawn) [Example 216, 5-((4R)-4-((3R,10S,13R)-3-methoxy-10,13-dimethylhexadecahydro-1H-cyclopenta[a]phenanthren-17-yl)pentyl)-13,13-dimethyl-11-(octyloxy)-12,14-dioxa-5-aza-13-siladocosan-1-ol] | 817325 |  | −15.48 mV | 0.228 | 269.1 nm
